In series [1] the test system is HEK-ACE2/HEK-ACE-xenografted mice. The series can be described thus: SPECT/CT imaging and quantification of retained activity in HEK-ACE2/HEK-ACE xenografted mice. It counts as in vivo, mouse. The settings on record: SPECT/CT quantification, non-decay-corrected. The protocol: (§1) All applicable international, national, and/or institutional guidelines for the care and use of animals were followed. In particular, all animal experiments were carried out according to the guidelines of the Swiss Regulations for Animal Welfare. Preclinical studies have been ethically approved by the Cantonal Committee of Animal Experimentation and permitted by the responsible cantonal authorities (License N° 75743). Five-week-old female CD1/nude mice and female immunocompetent FVB mice were obtained from Charles River Laboratories (Sulzfeld, Germany) and fed with standard rodent chow ad libitum. CD1/nude were subcutaneously inoculated with HEK-ACE2 cells (6–8 × 10^6 cells in 100 µL PBS) on the right shoulder and approximately one week later with HEK-ACE (4 × 10^6 cells in 100 µL PBS) on the left shoulder. Imaging and biodistribution studies were performed 2–4 weeks later when the xenografts reached a size of 100–300 mm^3.
SPECT/CT imaging was performed using a four-head, multiplexing, multipinhole small-animal SPECT camera (NanoSPECT/CT™, Mediso Medical Imaging Systems, Budapest, Hungary). Each head was outfitted with a tungsten-based aperture of nine 1.4 mm-diameter pinholes and a thickness of 10 mm. CT scans of 7.5 min duration were followed by SPECT scans of ~ 50 min performed 1 h, 3 h and 24 h after injection of the respective radiopeptide (10 MBq, 0.5 nmol, 100 μL), diluted in NaCl 0.9% containing 0.05% BSA. During the scan, mice were anesthetized with a mixture of isoflurane and oxygen. The images were acquired using Nucline software (version 1.02, Mediso Ltd., Budapest, Hungary). The real-time CT reconstruction used a cone-beam-filtered backprojection. The reconstruction of SPECT data was performed with the HiSPECT software (version 1.4.3049, Scivis GmbH, Göttingen, Germany) using γ-energies of 93.20 keV (± 10%), 184.60 keV (± 10%) and 300.00 keV (± 10%) for gallium-67. All images were prepared using the VivoQuant post-processing software (version 3.0, inviCRO Imaging Services and Software, Boston, US). A Gauss post-reconstruction filter (full width at half maximum, 1 mm) was applied, and the scale of activity for gallium-67 was set as indicated on the SPECT/CT images. In order to estimate the wash-out of the DX600-based radiopeptides from the HEK-ACE2 xenografts and kidneys over time, the absolute amount of activity was determined in these tissues using the VivoQuant quantification tool. The accumulated activity (non-decay-corrected value in MBq) in the xenografts and kidneys, respectively, obtained at the 1 h p.i. timepoint was set as 100%. The percentage of activity retained in these tissues was determined at 3 h and 24 h p.i. based on the absolute activity determined at these timepoints.

The test system is the same in series [2]. Kind of series: Biodistribution in HEK-ACE2/HEK-ACE xenografted mice. Format: in vivo, mouse. Particulars: 3 h after injection. As for the experimental part: as §1
(§2) Biodistribution studies in xenograft-bearing mice were performed 2–4 weeks after cell inoculation. Mice were intravenously injected with [^67Ga]Ga-DOTA-DX600, [^67Ga]Ga-NODAGA-DX600, [^67Ga]Ga-HBED-CC-DX600 or [^67Ga]Ga-DOTA-BPP9a (3 MBq, 0.5 nmol, 100 µL) diluted in NaCl 0.9% containing 0.05% BSA. The mice were sacrificed 3 h after administration of the radiopeptides. Selected tissues and organs were collected, weighed and counted using a γ-counter. The results were listed as a percentage of the injected activity per gram of tissue mass (% IA/g), using counts of a defined volume of the original injection solution measured simultaneously, resulting in decay-corrected values. Statistical analysis was performed by applying a one‐way ANOVA test with a Tukey’s multiple comparisons post‐test (GraphPad Prism software, version 8.3.1).

Assay in series [3]: as above
Format: in vivo, mouse. Particulars: female, CD1/nude, mouse, iv, 0.5 nmol, total radioactivity, 3 h after i.v. injection, decay-corrected, n = 3. The protocol: as §1, §2

The subject of series [4] is FVB mice. Kind of series: In vivo stability in immunocompetent FVB mice (TLC of blood plasma, urine, kidneys). Further details: species or system mouse. The settings on record: 1 h p.i., fraction of accumulated activity. The protocol:
In order to investigate the stability of the radiopeptides, the ^67Ga-labeled DX600 peptides (20 MBq/nmol) were tested in immunocompetent FVB mice (10 MBq in 100 μL per mouse). Before sacrificing, blood was collected from each mouse 1 h after injection of the radiopeptides. After centrifugation, the blood plasma was analyzed using reversed phase TLC with citrate buffer (0.1 M, pH 5.5) as a mobile phase. The kidneys were collected and processed to investigate the presence of intact radiopeptides and potential metabolites using the same TLC system. The analysis of the chromatograms was performed as described for the in vitro plasma stability (Additional file 1).
Methods: Immunocompetent FVB mice were injected with the DX600-based radiopeptides (n=2). One hour later, urine was collected and blood was sampled from the retrobulbar vein followed by centrifugation (10 min, 200 rcf). A drop of urine and blood plasma was analyzed using the TLC method described for in vitro stability experiments above (reversed phase as stationary phase and citrate buffer pH 5.5 as mobile phase). The data were also confirmed using normal phase TLC. Kidneys of mice were collected, cut into small pieces, homogenized in 200 μL buffer solution (ice-cold methanol containing 0.025% NH4OH) and centrifuged (5 min, 2300 rcf, 4° C) as described by Boss et al.. An aliquot of the supernatant of each sample was developed using the same TLC method as for urine and blood plasma samples. The TLC plates were exposed to a phosphor screen which was afterwards read using a storage phosphor system (Cyclone Plus, PerkinElmer). The quantification of the signals was carried out using the OptiQuant software (version 5.0, Bright Instrument Co Ltd., PerkinElmer^TM). The obtained chromatograms were analyzed by determination of the peak area of the radiolabeled peptide, the released gallium-67 as well as degradation products of unknown structure. The quantity of the intact product was expressed as percentage of the sum of integrated peak areas of the entire chromatogram.

Like-named read-outs stand apart in the source and are kept apart here. Positions of bridges follow the written chain, without caps; N, C: chain ends. Residues, ends and D or L forms follow the SMILES beside them. *: point of attachment. NODAGA = O=C(O)CN1CCN(CC(=O)O)CCN(C(CCC(=O)*)C(=O)O)CC1

In the case of `CC(=O)N[C@@H](CCCCNC(=O)CCC(C(=O)O)N1CCN(CC(=O)O)CCN(CC(=O)O)CC1)C(=O)NCC(=O)N[C@@H](CC(=O)O)C(=O)N[C@@H](Cc1ccc(O)cc1)C(=O)N[C@@H](CO)C(=O)N[C@@H](Cc1c[nH]cn1)C(=O)N[C@H]1CSSC[C@@H](C(=O)N[C@H](C(=O)N[C@@H](Cc2ccc(O)cc2)C(=O)N2CCC[C@H]2C(=O)N[C@@H](CC(=O)O)C(=O)N2CCC[C@H]2C(=O)N[C@@H](CCC(=O)O)C(=O)NCC(=O)NCC(=O)NCC(N)=O)[C@@H](C)O)NC(=O)[C@H](CCCCN)NC(=O)[C@H](Cc2c[nH]c3ccccc23)NC(=O)[C@H](Cc2c[nH]c3ccccc23)NC(=O)[C@@H]2CCCN2C(=O)[C@H](Cc2ccc(O)cc2)NC(=O)[C@H](Cc2ccc(O)cc2)NC(=O)[C@H](CCCNC(=N)N)NC(=O)[C@H](CC(C)C)NC(=O)[C@@H]2CCCN2C(=O)[C@H](CO)NC1=O` (stereo partly shown) [[^67Ga]Ga-NODAGA-DX600, metal not drawn] (Ac-K(NODAGA)GDYSHCSPLRYYPWWKCTYPDPEGGG-NH2; disulfide 7-18), the entries for the “Activity retained in the kidneys relative to the 1 h p.i.-timepoint” value in series [1] (3 h p.i.) and in series [1] (24 h p.i.) were ~ 85% and 35–45%, respectively. In addition, in series [2], the HEK-ACE2 xenograft-to-kidney ratio was 0.67 ± 0.16. Besides, the tissue uptake at 3 h is 15.5 ± 2.2 %ID/g in series [3] (HEK-ACE2 xenograft, read-out: Biodistribution: ACE2 xenograft (HEK-ACE2)); 0.02 ± 0.01 %ID/g in series [3] (blood, read-out: Biodistribution: blood); 0.04 ± 0.01 %ID/g in series [3] (bone, read-out: Biodistribution: bone); 0.04 ± 0.01 %ID/g in series [3] (heart, read-out: Biodistribution: heart); 0.13 ± 0.07 %ID/g in series [3] (intestines, read-out: Biodistribution: intestines); approximately 24 %ID/g in series [3] (kidneys, read-out: Biodistribution: kidneys (renal retention)). Besides, the tissue uptake at 3 h worked out at 0.25 ± 0.04 %ID/g in series [3] (liver, read-out: Biodistribution: liver); 0.08 ± 0.01 %ID/g in series [3] (lung, read-out: Biodistribution: lung); 0.02 ± 0.01 %ID/g in series [3] (muscle, read-out: Biodistribution: muscle); 0.05 ± 0.01 %ID/g in series [3] (salivary glands, read-out: Biodistribution: salivary glands); 0.08 ± 0.01 %ID/g in series [3] (spleen, read-out: Biodistribution: spleen); 0.06 ± 0.03 %ID/g in series [3] (stomach, read-out: Biodistribution: stomach). Moreover, the “Radiometabolites in kidney homogenates” value in series [4] is ~ 90%.
